According to ChEMBL document CHEMBL1938376, “In vitro and in silico studies of polycondensed diazine systems as anti-parasitic agents” (Bioorg Med Chem Lett, 2012):

Experiments:
Trypanosoma cruzi = assay: Antiparasitic activity against nifurtimox-sensitive amastigotes of Trypanosoma cruzi Tulahuen expressing LacZ gene infected in human MRC5 cells using chlorophenolred b-Dgalacto-pyranoside as substrate by colorimetric method; format: functional, organism-based
Leishmania infantum = assay: Antiparasitic activity against amastigotes of Leishmania infantum infected in mouse peritoneal macrophages after 5 days using giemsa staining by microscopic analysis; format: functional, organism-based
[1] = Solubility of the compound in 13% DMSO/water; format: physicochemical; conditions: buffer
MRC5 = assay: Cytotoxicity against human MRC5 cells after 4 to 7 days using alamar blue/resazurin staining by fluorescence assay; format: cell-based
[2] = Selectivity index, ratio of IC50 for human MRC5 cells to IC50 for drug-sensitive trypomastigotes of Trypanosoma brucei; format: toxicity, cell-based; conditions: read-out: Ratio IC50
[3] = Solubility of the compound; format: physicochemical
Trypanosoma brucei = assay: Antiparasitic activity against trypomastigote form of drug-sensitive Trypanosoma brucei assessed as inhibition of parasite growth after 4 days using alamar blue/resazurin staining by fluorimetric method; format: functional, organism-based
Plasmodium falciparum = assay: Antimalarial activity against chloroquine-sensitive Plasmodium falciparum GHA infected in human erythrocytes assessed as parasite growth after 72 hrs by malstat reagent based spectrophotometric method; format: functional, organism-based
[4] = Solubility of the compound in 100% DMSO; format: physicochemical
[5] = Selectivity index, ratio of IC50 for human MRC5 cells to IC50 for nifurtimox-sensitive amastigotes of Trypanosoma cruzi; format: toxicity, cell-based; conditions: read-out: Ratio IC50
[6] = Selectivity index, ratio of IC50 for human MRC5 cells to IC50 for chloroquine-sensitive Plasmodium falciparum GHA; format: toxicity, cell-based; conditions: read-out: Ratio IC50
[7] = Trypanosoma cruzi, Tulahuen, MRC5
[8] = Plasmodium falciparum, GHA, 72 h

Structure (SMILES) | IC50 (Leishmania infantum; Leishmania infantum, 120 h) | solubility [1] | solubility [3] | IC50 (Trypanosoma brucei; Trypanosoma brucei, 96 h) | solubility [4] | IC50 (Trypanosoma brucei) | IC50 (Leishmania infantum) | IC50 (Trypanosoma cruzi; [7]) | IC50 (MRC5; Homo sapiens, MRC5) | selectivity ratio [2] | IC50 (Plasmodium falciparum; [8]) | selectivity ratio [5] | selectivity ratio [6] | IC50 (Trypanosoma cruzi; mrc5) | IC50 (MRC5; mrc5) | IC50 (Plasmodium falciparum)
COC(=O)C1=NN(c2ccc(Cl)cc2)C2C3N(c4ccc(Cl)cc4)N=C(C(=O)OC)N3c3c(C)cccc3N12 (racemic) | 64 µM | soluble |  | 64 µM |  |  |  | 64 µM | 64 µM |  | 42.6 µM |  |  |  |  | 
COC(=O)C1=NN(c2ccccc2)[C@@H]2N1c1ccccc1N1C(C(=O)OC)=NN(c3ccccc3)[C@@]21C (racemic) | 64 µM | soluble |  | 64 µM |  |  |  | 4.29 µM | 64 µM |  | 11.6 µM | 6 |  |  |  | 
CCOC(=O)C1=NN(c2ccc(Cl)cc2)[C@@H]2N1c1ccccc1N1C(C(=O)OCC)=NN(c3ccc(Cl)cc3)[C@@]21C (racemic) | 64 µM | soluble | soluble | 64 µM |  |  |  | 64 µM | 64 µM |  | 0.5 µM |  | 128 |  |  | 
COC(=O)C1=NN(c2ccc(Cl)cc2)C2(C1)Nc1ccccc1N1C(C(=O)OC)=NN(c3ccc(Cl)cc3)C12 (racemic) | 64 µM | soluble |  | 64 µM |  |  |  | 64 µM | 64 µM |  | 64 µM |  |  |  |  | 
CC(=O)C1=NN(c2ccccc2)C2C3N(c4ccccc4)N=C(C(C)=O)N3c3ccccc3N12 (stereo in doubt; 4b) |  |  |  |  |  | 8.06 µM | 32.5 µM |  |  |  |  |  |  | 12.6 µM | 29.6 µM | 8.48 µM
COC(=O)C1=NN(c2ccccc2)C2C3N(c4ccccc4)N=C(C(=O)OC)N3c3ccccc3N12 (stereo in doubt; 4d) | 64 µM | soluble |  | 64 µM |  |  |  | 64 µM | 64 µM |  |  | 6 |  |  |  | 12.3 µM
COC(=O)C1=NN(c2ccccc2)C2C3N(c4ccccc4)N=C(C(=O)OC)N3c3ccccc3N12 (stereo in doubt; 4e) |  |  |  |  |  | 34.6 µM |  |  |  |  |  |  |  | 42.5 µM | 33.1 µM | 25.6 µM
CCOC(=O)C1=NN(c2ccc(Cl)cc2)C2C3N(c4ccc(Cl)cc4)N=C(C(=O)OCC)N3c3ccccc3N12 (stereo in doubt; 4f) | 64 µM | soluble |  |  |  | 64 µM |  |  |  |  |  |  |  | 64 µM | 64 µM | 37.3 µM
CCOC(=O)C1=NN(c2ccc(Cl)cc2)C2C3N(c4ccc(Cl)cc4)N=C(C(=O)OCC)N3c3ccccc3N12 (stereo in doubt; 4g) |  |  | soluble |  |  | 2.01 µM | 32 µM |  |  | 2 |  | 6 |  | 8.75 µM | 12.4 µM | 18.6 µM

The next lines start with results.

IC50 (Leishmania infantum; Leishmania infantum, 120 h) | solubility [1] | solubility [3] | IC50 (Trypanosoma brucei; Trypanosoma brucei, 96 h) | solubility [4] | IC50 (Trypanosoma brucei) | IC50 (Leishmania infantum) | Structure (SMILES) | IC50 (Trypanosoma cruzi; [7]) | IC50 (MRC5; Homo sapiens, MRC5) | selectivity ratio [2] | IC50 (Plasmodium falciparum; [8]) | selectivity ratio [5] | selectivity ratio [6] | IC50 (Trypanosoma cruzi; mrc5) | IC50 (MRC5; mrc5) | IC50 (Plasmodium falciparum)
32.5 µM | soluble | soluble | 2.03 µM |  |  |  | O=C(C1=NN(c2ccccc2)C2C3N(c4ccccc4)N=C(C(=O)c4ccccc4)N3c3ccccc3N12)c1ccccc1 (configuration not stated) | 64 µM | 17.6 µM | 2 | 27.7 µM |  |  |  |  | 
64 µM | soluble |  | 64 µM |  |  |  | C1=NN(c2ccccc2)C2C3N(C=NN3c3ccccc3)c3ccccc3N12 (configuration not stated) | 64 µM | 64 µM |  | 29.8 µM |  |  |  |  | 
64 µM | soluble |  | 64 µM |  |  |  | COC(=O)C1=NN(c2ccccc2)C2=CNc3c(C)cccc3N21 | 64 µM | 64 µM |  | 64 µM |  |  |  |  | 
32.5 µM | soluble |  | 64 µM |  |  |  | COC(=O)C1=NN(c2ccccc2)C2C3N(c4ccccc4)N=C(C(=O)OC)N3c3[nH]c(-c4ccccc4)cc3N12 (configuration not stated) | 64 µM | 64 µM |  | 6.87 µM |  |  |  |  | 
32.5 µM |  | soluble | 64 µM | Insoluble |  |  | CC(=O)C1=NN(c2ccccc2)C2C3N(c4ccccc4)N=C(C(C)=O)N3c3[nH]c(-c4ccccc4)cc3N12 (configuration not stated) | 64 µM | 64 µM |  | 2.15 µM |  |  |  |  | 
64 µM | soluble |  | 32.2 µM |  |  |  | CCOC(=O)C1=NN(c2ccc(Cl)cc2)C2C3N(c4ccc(Cl)cc4)N=C(C(=O)OCC)N3c3[nH]c(-c4ccccc4)cc3N12 (configuration not stated) | 40.3 µM | 64 µM |  | 26.9 µM |  |  |  |  | 
64 µM |  |  | 64 µM | Insoluble |  |  | C1=C(c2ccccc2)NC2=NC=C3N(c4ccccc4)N=C(c4ccccc4)N3C12 (configuration not stated) | 64 µM | 64 µM |  | 64 µM |  |  |  |  | 
64 µM |  |  | 64 µM | Insoluble |  |  | COC(=O)C1=NN(c2ccccc2)C2=CN=C3NC(c4ccccc4)=CC3N21 (configuration not stated) | 64 µM | 64 µM |  | 64 µM |  |  |  |  | 
24.1 µM | soluble |  | 32.2 µM |  |  |  | CC(=O)C1=NN(c2ccccc2)[C@@H]2N1c1ccccc1N1C(C(C)=O)=NN(c3ccccc3)[C@@]21C (racemic) | 33.7 µM | 64 µM |  | 29.2 µM |  |  |  |  | 
8 µM | soluble |  | 2.06 µM |  |  |  | C[C@]12[C@@H]3N(c4ccccc4)N=C(C(=O)c4ccccc4)N3c3ccccc3N1C(C(=O)c1ccccc1)=NN2c1ccccc1 (racemic) | 10.1 µM | 64 µM | 2 | 8.23 µM |  |  |  |  | 
32 µM | soluble |  |  |  | 64 µM |  | CC(=O)C1=NN(c2ccccc2)C2C3N(c4ccccc4)N=C(C(C)=O)N3c3ccccc3N12 (stereo in doubt; 4a) |  |  |  |  |  |  | 38.1 µM | 64 µM | 64 µM
